Test results reported in patent publication US20190330607A1, “USE OF A SUGAR TOLERANT BETA-GLUCOSIDASE” (Universitè de Liége, priority 2016, published 2019).
Read-outs that look alike come from different tables or passages of the source.

Columns and labels:
Format in all cases: biochemical
[1] = tested on: BglC (beta-glucosidase of Streptomyces scabies 87-22); experiment: Relative enzyme activity of BglC with p-NPβG as substrate in presence of tested reagent
Description: (§1) Relative enzyme activity was determined using p-nitrophenyl-β-D-glucopyranoside (p-NPβG) as substrate. The reaction mixture (200 μL) containing 50 mM HEPES buffer (pH 7.5), 0.2 μM of purified BglC and the tested reagent was incubated 10 minutes at 25° C. before addition of 1 mM p-NPβG. The reaction was carried out at 25° C. for 2 minutes and stopped by addition of 100 μL of 2 M Na2CO3. All assays were performed under these conditions, unless otherwise indicated. The release of p-nitrophenol (p-NP) was measured at 405 nm with a TECAN Infinite® 200 PRO. The activity assayed in absence of the tested reagent was recorded as 100%.

[2] = Kinetic analysis of BglC on cellobiose (glucose released, D-Glucose HK Assay Kit)
Description: Kinetic parameters of BglC (Km and kcat) were determined by measuring the glucose released at various cellobiose concentrations in 50 mM HEPES buffer pH 7.5 at 26° C. Reaction time of 7 min was chosen to ensure initial rates of hydrolysis. The glucose released was determined using the D-Glucose HK Assay Kit from Megazyme (Ireland). Data were fitted to the Henri-Michaelis-Menten equation using the GraphPad Prism 5 software.

[3] = Effect of temperature and pH on BglC activity (p-NPβG)
Description: as §1
The optimal temperature was determined by measuring the relative enzyme activity of BglC in HEPES 50 mM pH 7.5 at 20, 25, 30, 37 and 42° C. To measure the effect of pH on activity of BglC, relative activity was essayed in the range of pH 5.0-6.5 (50 mM MES buffer), pH 7.0-8.5 (50 mM HEPES buffer) and pH 9-10 (50 mM CHES buffer) at 25° C.

[4] = Substrate specificity of BglC by thin layer chromatography; conditions: 30° C.
Description: The cleavage ability of BglC was tested against different cello-oligosaccharides (cellobiose, cellotriose, cellotetraose, cellopentaose and cellohexaose (Megazyme; Ireland)) or different disaccharides (lactose, saccharose, maltose, threalose and turanose). Reaction mixtures (100 μL) containing 50 mM HEPES buffer pH 7.5, 0.4 μM of purified BglC, 6.25 mM of cello-oligosaccharides or 12.5 mM of disaccharides were incubated at 30° C. 15 μL of each sample were collected at 0, 15, 30 and 60 min than heated at 98° C. for 5 min to stop the reaction. Each sample was spotted onto aluminum-backed Silica gel plate (Sigma). The plates were developed with chloroform-methanol-acetic acid-water solvent (50:50:15:5, vol/vol), air dried, dipped in 5% H2SO4 in ethanol and finally heated over a hot plate until visualization of carbohydrate spots.

[5] = Time course of cellobiose hydrolysis by BglC over 7 days, HPLC
Description: Glucose and cellobiose analysis was performed by HPLC on an Aminex HPX-87P Column (300×7.8 mm) heated to 80° C. with H2O as eluent (flow rate 0.6 mL/min). Peaks were detected by refractive index detector (Waters 2414).
The tolerance of BglC to glucose was further investigated during prolonged reaction time (7 days). Cellobiose and glucose quantification were performed by HPLC (FIG. 5). 80% of cellobiose was hydrolyzed in 48 h (FIG. 5).

[6] = Oses (15%), control = 100%, p-NPβG substrate
[7] = reagent 10 mM, activity without additive = 100%
[8] = reagent 10%, activity without additive = 100%
[9] = substrate cellobiose, 50 mM HEPES pH 7.5, 26° C.

## O=C[C@H](O)[C@@H](O)[C@@H](O)[C@H](O)CO [Galaclose, galactose]
[1]; [6]
  Relative initial rate of hydrolysis (%): 255 ± 9%

## O=C(O)CN(CCN(CC(=O)O)CC(=O)O)CC(=O)O [EDTA, ethylene diamine tetraacetic acid]
[1]; [7]
  Relative initial rate of hydrolysis (%): 98 ± 15%

## CO [Methanol, methanol]
[1]; [8]
  Relative initial rate of hydrolysis (%): 65 ± 6%

## CCCCCCCCCCCCOS(=O)(=O)[O-].[Na+] [SDS]
[1]; [7]
  Relative initial rate of hydrolysis (%): 64 ± 3%

## NC(N)=O [Urea, urea]
[1]; [7]
  Relative initial rate of hydrolysis (%): 103 ± 13%

## OC[C@@H](O)[C@@H](O)[C@H](O)[C@@H](O)CO [Sorbitol, sorbitol]
[1]; [6]
  Relative initial rate of hydrolysis (%): 202 ± 1%

## O=C[C@H](O)[C@@H](O)[C@H](O)CO [Xylose, xylose]
[1]; [6]
  Relative initial rate of hydrolysis (%): 340 ± 20%
[1]; xylose 0.3 to 1.6 M (FIG. 4)
  maximal activity of BglC: 300-350%

## [Cl-].[Na+] [NaCl]
[1]; NaCl 500 mM (FIG. 7)
  activity of BglC kept: around 70%
[1]; NaCl 1 M (FIG. 7)
  activity of BglC: about 50%
[1]; NaCl below 100 mM (FIG. 7)
  effect on capacity of the enzyme to hydrolyze p-NPβG: does not significantly alter

## CCO [Ethanol, ethanol]
[1]; ethanol 0 to 40% tested (FIG. 6)
  ethanol concentration with maximal enhancing activity: 15%
[1]; [8]
  Relative initial rate of hydrolysis (%): 218 ± 6%

## O=C(CO)[C@@H](O)[C@H](O)[C@H](O)CO [Fructose, fructose]
[1]; [6]
  Relative initial rate of hydrolysis (%): 178 ± 9%

## O[C@H](CS)[C@H](O)CS (racemic) [DTT, dithiothreitol]
[1]; [7]
  Relative initial rate of hydrolysis (%): 116 ± 5%

B1: BglC: recombinant His-tagged beta glucosidase of Streptomyces scabies 87-22, SEQ ID NO:2 (protein, listed as Streptomyces scabiei)
chain: MPEPVNPATPVTFPPAFLWGAATSAYQIEGAVREDGRTPSIWDTFSHTPGKTAGGENGDIAVDHYHRYRDDVAMMADLGLNAYRFSVSWSRVQPTGRGPAVQKGLDFYRRLVDELLAKGIKPAVTLYHWDLPQELEDAGGWPERDIVHRFAEYARIMGEALGDRVEQWITLNEPWCTAFLGYGSGVHAPGRTDPVASLRAAHHLNVAHGLGVSALRSAMPARNSIAVSLNSSVVRPITSSPEDRAAARKIDDLANGVFHGPMLHGAYPETLFAATSSLTDWSFVRDGDVATAHQPLDALGLNYYTPALVGAADAGLEGPRADGHGASEHSPWPAADDVLFHQTPGERTEMGWTIDPTGLHELIMRYAREAPGLPMYVTENGAAYDDKMDADGRVHDPERIAYLHGHLRAVRRAIAEGADVRGYYLWSLMDNFEWAYGYGKRFGAVYVDYATLTRTPKSSAHWYGQAAKTGALPPLAPAPA
modifications: His6 tag
[2]
  Vmax: 7.3 µmol/min/mg
[2]; [9]
  Km: 770 µM
  Vmax: 7.3 µmol/min/mg
  kcat: 6.67 s⁻¹
[3]; 25° C., pH 5-10 tested
  optimal pH: around 7.5
[3]; 42° C., HEPES 50 mM pH 7.5 (FIG. 3A)
  activity relative to maximal activity: 10%
[4]; 6.25 mM substrate, 0.4 μM BglC, 0-60 min (FIG. 2)
  hydrolysis of cellobiose and cello-oligosaccharides (cellotriose to cellohexaose): able to generate glucose
[4]; 12.5 mM disaccharides
  hydrolysis of other disaccharides (saccharose, maltose, threalose, turanose): did not reveal hydrolysis
[4]; 12.5 mM, compared with cellobiose or cello-oligosaccharides
  hydrolysis of lactose: much less efficiency
[5]; between glucose and cellobiose, 7 days reaction, glucose only product detected
  transglycosylation activity: no or reduced transglycosylation activity
[5]; in 48 h (FIG. 5)
  cellobiose hydrolyzed: 80%
